Laboratory results published in patent US10383841B2, “Antimicrobial and antiinflammatory composition” (Denovastella AB, priority 2005, dated 2019).

Columns and labels:
Assay type in all cases: cell-based
Candida albicans H29 = assay: Agar dilution method, MIC
Procedure: (§1) The five strains of Malassezia were CBS7019 M. Furfur, CBS 1871 M. Pachydermatis, CBS7956 M. Slooffiae, CBS7966 M. Globosa and 42132 M. Sympodialis. The Staphylococcus aureus strain and Candida albicans H29 strain (grown on mycobiotic plates). Malassezias were cultured on PO plates and kept in room temperature. Candida albicans were grown on mycobiotic plates at room temperature. Preceding the first experiment the yeasts were reinoculated and stored for five days in a 32° C. thermostat. Afterwards they were continually reinoculated every week to ensure viable strains. S. aureus were refrigerated and reinoculated on a horse blood plate and incubated for one day in 37° C. before being included in any study.
(§2) DST-TG-agar (diagnostic sensitivity test agar) with a glycerol monostearate and tween content to meet the growth requirements of the Malassezias was used. […] The agar was obtained from the Microbiological Laboratories, Sahlgrenska, Gothenburg, Sweden. When received the agar was in a liquid form requiring storage at 55° C.
(§3) The oil extract from example 1 were diluted in DMF (dimethyl formamide) producing a stock solution with 20% extract and 80% DMF. A secondary stock solution was made by diluting a decided volume of the first stem solution in PBS. Finally the solutions were mixed with the soluble agar to obtain concentrations of the extract of 1, 0.5, 0.25, 0.125, 0.0625, 0.05, 0.025 and 0.0125% in the agar. Since the ethanol extract readily dissolved with the agar no emulsifier was needed. The ethanol extract was diluted directly with the agar to obtain concentrations of the extraxt of 1, 0.5, 0.125, 0.1, 0.05, 0.0125, 0.01 and 0.005% in the agar. No precipitations or supernatants were observed.
(§4) Microbes were harvested and suspended into PBS and manually counted in Barker chambers to receive concentrations of 10^7 cells/ml for the Malassezias and 10^5 cells/ml for the Staphylococci and Candida. Due to poor growth of M. globosa, M. slooffiae and emulsions were modified to contain 10^8 cells/ml in the third experiment.
(§5) Using a Pasteur micropipette, plates were inoculated with 20 μl of emulsion. Plates were inoculated with either three or four microorganisms. Control plates containing only agar and plates with mirrored concentration series of DMF and ethanol were made. Additionally, all plates had paralleled controls.
(§6) Plates were incubated in 37° C. for approximately 3 days and then read.

M. furfur CBS7019 = assay: Agar dilution method, MIC
Procedure: as §1, §2, §3, §4, §5, §6

M. globosa CBS7966 = assay: Agar dilution method, MIC
Procedure: as §1, §2, §3, §4, §5, §6

[1] = system: M. pachydermatis CBS 1871; assay: Agar dilution method, MIC
Procedure: as §1, §2, §3, §4, §5, §6

M. slooffiae CBS7956 = assay: Agar dilution method, MIC
Procedure: as §1, §2, §3, §4, §5, §6

M. sympodialis 42132 = assay: Agar dilution method, MIC
Procedure: as §1, §2, §3, §4, §5, §6

Staphylococcus aureus = assay: Agar dilution method, MIC
Procedure: as §1, §2, §3, §4, §5, §6

[2] = system: all microorganisms (five Malassezia strains, Candida albicans, Staphylococcus aureus); assay: Agar dilution method, summary over all microorganisms
Procedure: as §1, §2, §3
Microbes were harvested and suspended into PBS and manually counted in Barker chambers to receive concentrations of 10^7 cells/ml for the Malassezias and 10^5 cells/ml for the Staphylococci and Candida. […]
as §6

[3] = Experiment II, — = no MIC up to maximum titre of that line (Cineole 0.125%, DNS in ethanol 2.5% 0.025%)
[4] = Experiment II, agar control: poor growth

| Structure (SMILES) | MIC (Candida albicans H29; [3]) [%] | MIC (M. furfur CBS7019; [3]) [%] | MIC (M. globosa CBS7966; [4]) [%] | MIC [1, 3] [%] | MIC (M. slooffiae CBS7956; [4]) [%] | MIC (M. sympodialis 42132; [3]) [%] | MIC (Staphylococcus aureus; [3]) [%] | MIC spread ([2]; over the microorganisms) | MIC (Candida albicans H29; Experiment III) [%] | MIC (M. furfur CBS7019; Experiment III) [%] | MIC (M. globosa CBS7966; Experiment III, 10^8 cells/ml) [%] | MIC (M. globosa CBS7966; Experiment III, 10^8 cells/ml, listed as 1,8-cineole) [%] | MIC ([1]; Experiment III) [%] | MIC (M. slooffiae CBS7956; Experiment III, 10^8 cells/ml) [%] | MIC (M. sympodialis 42132; Experiment III) [%] | MIC (Staphylococcus aureus; Experiment III) [%] | highest attained MIC of studied substances [2] [%] | nearly all MICs ([2]; subsequent experiment, four times the initial value) [%] |
| --- | --- | --- | --- | --- | --- | --- | --- | --- | --- | --- | --- | --- | --- | --- | --- | --- | --- | --- |
| C=CC1(C)CCC(C(C)C(=O)CC=C(C)C)O1 (stereo not drawn) [Davanone, davanone] | 0.0625 | 0.0625 | 0.025 | 0.0625 | 0.0125 | 0.0125 | 0.125 | 0.0125-0.125% |  |  |  |  |  |  |  |  |  |  |
| CC12CCC(CC1)C(C)(C)O2 [Cineole, 1,8-cineole] | 0.125 | 0.125 | 0.125 | 0.125 | 0.125 | 0.0625 |  |  | 0.500 | 0.500 | 1.000 | 1.0 | 0.500 | 0.500 | 0.500 | 0.500 | 0.5 | 0.5 |
